Consider five molecules from ChEMBL document CHEMBL3758163, “Extended structure-activity study of thienopyrimidine-based EGFR inhibitors with evaluation of drug-like properties” (Eur J Med Chem, 2016).

Values after ≈ are worked out from the molar mass of the structure shown.

Sequence of Mitogen-activated protein kinase 14 (Homo sapiens) (Q16539 whole entry): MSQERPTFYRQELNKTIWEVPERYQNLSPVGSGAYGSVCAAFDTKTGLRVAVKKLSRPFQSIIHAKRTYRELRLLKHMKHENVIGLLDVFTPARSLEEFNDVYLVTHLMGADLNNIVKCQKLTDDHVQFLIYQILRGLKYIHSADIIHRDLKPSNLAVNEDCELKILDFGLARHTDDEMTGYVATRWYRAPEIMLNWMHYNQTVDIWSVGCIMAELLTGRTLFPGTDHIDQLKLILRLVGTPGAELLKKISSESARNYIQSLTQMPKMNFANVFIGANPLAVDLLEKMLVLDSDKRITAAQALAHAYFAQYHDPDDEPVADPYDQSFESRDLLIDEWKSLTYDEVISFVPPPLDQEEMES
Sequence of Tyrosine-protein kinase HCK (Homo sapiens) (P08631 2-526 limits assumed): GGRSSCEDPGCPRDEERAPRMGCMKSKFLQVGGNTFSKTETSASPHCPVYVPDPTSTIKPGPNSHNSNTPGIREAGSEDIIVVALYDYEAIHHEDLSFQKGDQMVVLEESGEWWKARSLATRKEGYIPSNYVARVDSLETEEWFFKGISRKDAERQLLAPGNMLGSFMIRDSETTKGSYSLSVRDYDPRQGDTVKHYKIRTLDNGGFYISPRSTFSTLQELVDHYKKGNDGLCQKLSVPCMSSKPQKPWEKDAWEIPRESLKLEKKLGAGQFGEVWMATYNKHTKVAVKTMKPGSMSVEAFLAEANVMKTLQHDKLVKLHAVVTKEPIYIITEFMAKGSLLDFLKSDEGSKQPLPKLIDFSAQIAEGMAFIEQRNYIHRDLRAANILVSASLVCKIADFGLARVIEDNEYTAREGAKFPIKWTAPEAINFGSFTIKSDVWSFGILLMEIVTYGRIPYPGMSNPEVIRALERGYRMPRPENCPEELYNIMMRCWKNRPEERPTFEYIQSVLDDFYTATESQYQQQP
Sequence of Dual specificity mitogen-activated protein kinase kinase 1 (Homo sapiens) (Q02750 whole entry): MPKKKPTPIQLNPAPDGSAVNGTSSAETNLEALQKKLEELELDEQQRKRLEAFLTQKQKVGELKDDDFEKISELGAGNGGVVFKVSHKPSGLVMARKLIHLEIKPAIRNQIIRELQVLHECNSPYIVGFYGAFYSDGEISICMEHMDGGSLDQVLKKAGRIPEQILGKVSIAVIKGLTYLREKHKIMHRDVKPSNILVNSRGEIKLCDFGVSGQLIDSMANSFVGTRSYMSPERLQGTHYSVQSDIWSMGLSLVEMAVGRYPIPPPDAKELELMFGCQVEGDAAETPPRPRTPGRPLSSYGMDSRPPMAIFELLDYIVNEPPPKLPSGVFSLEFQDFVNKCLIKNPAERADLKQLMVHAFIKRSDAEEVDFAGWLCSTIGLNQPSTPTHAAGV
Sequence of Receptor tyrosine-protein kinase erbB-2 (Homo sapiens) (P04626 whole entry): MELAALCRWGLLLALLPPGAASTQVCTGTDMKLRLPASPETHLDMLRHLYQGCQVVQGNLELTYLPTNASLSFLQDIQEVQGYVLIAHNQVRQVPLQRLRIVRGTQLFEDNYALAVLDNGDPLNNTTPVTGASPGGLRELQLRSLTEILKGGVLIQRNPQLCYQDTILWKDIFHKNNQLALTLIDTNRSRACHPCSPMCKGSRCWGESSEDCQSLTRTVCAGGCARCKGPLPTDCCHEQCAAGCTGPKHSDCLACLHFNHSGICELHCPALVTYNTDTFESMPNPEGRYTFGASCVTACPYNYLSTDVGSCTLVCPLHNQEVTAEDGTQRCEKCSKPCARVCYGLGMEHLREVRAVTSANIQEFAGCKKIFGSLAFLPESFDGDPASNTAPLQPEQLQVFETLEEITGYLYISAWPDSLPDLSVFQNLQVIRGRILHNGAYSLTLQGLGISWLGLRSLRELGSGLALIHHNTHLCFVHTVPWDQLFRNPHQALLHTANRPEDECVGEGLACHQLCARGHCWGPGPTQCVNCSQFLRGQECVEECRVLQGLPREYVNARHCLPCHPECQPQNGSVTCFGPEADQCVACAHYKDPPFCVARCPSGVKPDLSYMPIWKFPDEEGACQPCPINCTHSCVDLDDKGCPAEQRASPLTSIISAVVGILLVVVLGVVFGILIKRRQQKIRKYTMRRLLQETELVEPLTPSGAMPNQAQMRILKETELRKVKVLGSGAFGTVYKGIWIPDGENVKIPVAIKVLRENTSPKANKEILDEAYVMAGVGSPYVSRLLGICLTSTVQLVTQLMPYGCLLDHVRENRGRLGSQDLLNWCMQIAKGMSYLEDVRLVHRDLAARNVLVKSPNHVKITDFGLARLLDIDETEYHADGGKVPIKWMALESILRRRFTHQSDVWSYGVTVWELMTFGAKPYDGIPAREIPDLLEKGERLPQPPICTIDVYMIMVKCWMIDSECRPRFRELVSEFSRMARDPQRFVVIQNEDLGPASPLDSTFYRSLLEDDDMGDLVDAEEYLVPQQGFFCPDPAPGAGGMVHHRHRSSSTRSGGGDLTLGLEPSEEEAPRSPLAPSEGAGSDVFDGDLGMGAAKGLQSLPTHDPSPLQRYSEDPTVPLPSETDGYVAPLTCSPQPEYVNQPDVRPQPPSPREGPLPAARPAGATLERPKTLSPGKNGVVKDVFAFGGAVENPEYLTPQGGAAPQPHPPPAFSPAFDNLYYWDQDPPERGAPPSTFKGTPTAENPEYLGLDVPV

One series deals with Platelet-derived growth factor receptor beta (Homo sapiens) (UniProt P09619). Description: Inhibition of PDGFRB (unknown origin) at 500 nM.
Sequence of Platelet-derived growth factor receptor beta (Homo sapiens) (P09619 whole entry): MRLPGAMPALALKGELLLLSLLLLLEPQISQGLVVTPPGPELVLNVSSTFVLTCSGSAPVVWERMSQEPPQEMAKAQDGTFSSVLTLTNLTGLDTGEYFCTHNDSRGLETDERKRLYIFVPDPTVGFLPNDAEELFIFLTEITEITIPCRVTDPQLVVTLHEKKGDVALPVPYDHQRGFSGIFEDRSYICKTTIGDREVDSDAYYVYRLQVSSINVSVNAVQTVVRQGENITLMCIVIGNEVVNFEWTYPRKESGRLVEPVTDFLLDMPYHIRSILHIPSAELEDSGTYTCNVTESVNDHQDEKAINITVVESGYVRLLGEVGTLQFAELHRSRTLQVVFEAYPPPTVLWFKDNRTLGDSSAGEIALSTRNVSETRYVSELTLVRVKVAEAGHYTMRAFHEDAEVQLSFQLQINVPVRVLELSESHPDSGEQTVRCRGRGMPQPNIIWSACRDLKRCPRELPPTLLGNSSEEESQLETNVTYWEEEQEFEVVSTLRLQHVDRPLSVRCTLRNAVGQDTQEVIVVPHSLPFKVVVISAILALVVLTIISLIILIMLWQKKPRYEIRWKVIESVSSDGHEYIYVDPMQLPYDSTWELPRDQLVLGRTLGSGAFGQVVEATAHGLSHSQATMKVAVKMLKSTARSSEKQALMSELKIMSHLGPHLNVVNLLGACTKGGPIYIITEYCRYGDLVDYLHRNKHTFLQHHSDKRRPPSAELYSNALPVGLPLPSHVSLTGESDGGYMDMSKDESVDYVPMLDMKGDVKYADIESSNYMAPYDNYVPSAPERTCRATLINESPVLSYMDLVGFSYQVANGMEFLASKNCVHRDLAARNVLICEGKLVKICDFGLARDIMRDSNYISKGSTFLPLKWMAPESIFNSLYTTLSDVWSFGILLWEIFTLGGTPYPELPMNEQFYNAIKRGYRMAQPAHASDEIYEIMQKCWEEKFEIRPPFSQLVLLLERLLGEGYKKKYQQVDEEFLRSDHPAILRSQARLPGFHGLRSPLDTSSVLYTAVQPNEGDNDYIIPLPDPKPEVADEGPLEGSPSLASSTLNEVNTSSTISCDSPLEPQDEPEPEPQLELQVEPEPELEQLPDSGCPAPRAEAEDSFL
In the case of `COc1cc(CO)ccc1-c1cc2c(Nc3ccc(F)c(Cl)c3)ncnc2s1`, the inhibition was -3%.

Turning to `C[C@@H](Nc1ncnc2sc(-c3ccccc3C(N)=O)cc12)c1ccccc1`, the inhibition is 6%.

For `COc1cc(CO)ccc1-c1cc2c(Nc3ccccc3)ncnc2s1`, the inhibition was -3%.

With `COc1cc(CO)ccc1-c1cc2c(N[C@H](C)c3ccccc3)ncnc2s1`, the inhibition amounted to 3%.

Regarding `C[C@@H](Nc1ncnc2sc(-c3ccc(C(=O)NCCN(C)C)cc3)cc12)c1ccccc1`, the inhibition was 6%.

Another series concerns the target Dual specificity mitogen-activated protein kinase kinase 1 (Homo sapiens) (UniProt Q02750). Put plainly: Inhibition of MAP2K1 (unknown origin) at 500 nM.
Consider `COc1cc(CO)ccc1-c1cc2c(Nc3ccc(F)c(Cl)c3)ncnc2s1`, for which the inhibition amounted to 12%.

As to `C[C@@H](Nc1ncnc2sc(-c3ccccc3C(N)=O)cc12)c1ccccc1`, the inhibition was 3%.

In the case of `COc1cc(CO)ccc1-c1cc2c(Nc3ccccc3)ncnc2s1`, the inhibition worked out at 15%.

With `COc1cc(CO)ccc1-c1cc2c(N[C@H](C)c3ccccc3)ncnc2s1`, the inhibition was found to be 4%.

Consider `C[C@@H](Nc1ncnc2sc(-c3ccc(C(=O)NCCN(C)C)cc3)cc12)c1ccccc1`, for which the inhibition came to 6%.

Test system in the next series: not listed separately
Description: Half-life in human liver microsomes at 3 uM by LC-MS/MS analysis. In kind it is ADME. Background: Liver microsomes are vesicles of endoplasmic reticulum, rich in cytochrome P450 enzymes.
As to `COc1cc(CO)ccc1-c1cc2c(Nc3ccc(F)c(Cl)c3)ncnc2s1`, the half-life at 3 µM worked out at 2.6 h.

Test system in the next series: not listed separately
Put plainly: Aqueous solubility of compound in 0.01 M PBS buffer at pH 7.4 after 2 hrs by turbidimetric assay. It counts as physicochemical.
Turning to `COc1cc(CO)ccc1-c1cc2c(Nc3ccc(F)c(Cl)c3)ncnc2s1`, the solubility (kinetic) at 2 h is 2 µM (≈ 0.832 µg/mL).

The target in the next series is Protein kinase C theta type (Homo sapiens) (UniProt Q04759). Put plainly: Inhibition of PRKCQ (unknown origin) at 500 nM.
Sequence of Protein kinase C theta type (Homo sapiens) (Q04759 whole entry, looked up): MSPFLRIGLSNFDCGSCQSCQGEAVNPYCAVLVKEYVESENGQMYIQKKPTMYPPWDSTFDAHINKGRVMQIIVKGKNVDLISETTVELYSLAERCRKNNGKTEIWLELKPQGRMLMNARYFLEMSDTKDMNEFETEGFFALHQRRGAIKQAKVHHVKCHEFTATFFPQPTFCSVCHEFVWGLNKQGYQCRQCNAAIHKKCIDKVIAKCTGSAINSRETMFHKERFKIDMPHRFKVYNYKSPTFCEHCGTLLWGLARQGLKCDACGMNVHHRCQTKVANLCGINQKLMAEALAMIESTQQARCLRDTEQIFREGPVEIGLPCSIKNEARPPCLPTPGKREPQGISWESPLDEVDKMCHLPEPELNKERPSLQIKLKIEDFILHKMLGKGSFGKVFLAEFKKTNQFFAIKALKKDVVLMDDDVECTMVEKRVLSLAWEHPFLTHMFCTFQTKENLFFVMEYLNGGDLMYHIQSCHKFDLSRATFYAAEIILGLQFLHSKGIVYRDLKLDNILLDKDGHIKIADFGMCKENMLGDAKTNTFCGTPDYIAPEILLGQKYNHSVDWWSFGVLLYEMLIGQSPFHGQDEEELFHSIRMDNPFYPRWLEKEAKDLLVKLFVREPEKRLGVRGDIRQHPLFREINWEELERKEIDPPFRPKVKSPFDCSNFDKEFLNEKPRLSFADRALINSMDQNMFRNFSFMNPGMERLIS
Consider `COc1cc(CO)ccc1-c1cc2c(Nc3ccc(F)c(Cl)c3)ncnc2s1`, for which the inhibition was determined as 3%.

On to `C[C@@H](Nc1ncnc2sc(-c3ccccc3C(N)=O)cc12)c1ccccc1`, for which the inhibition was -1%.

For the molecule `COc1cc(CO)ccc1-c1cc2c(Nc3ccccc3)ncnc2s1`, the inhibition was -10%.

With `COc1cc(CO)ccc1-c1cc2c(N[C@H](C)c3ccccc3)ncnc2s1`, the inhibition was 1%.

As for `C[C@@H](Nc1ncnc2sc(-c3ccc(C(=O)NCCN(C)C)cc3)cc12)c1ccccc1`, the inhibition was -5%.

Another series has as its target Mitogen-activated protein kinase 14 (Homo sapiens) (UniProt Q16539). Description: Inhibition of MAPK14 (unknown origin) at 500 nM.
With `COc1cc(CO)ccc1-c1cc2c(Nc3ccc(F)c(Cl)c3)ncnc2s1`, the inhibition turned out to be 6%.

In the case of `C[C@@H](Nc1ncnc2sc(-c3ccccc3C(N)=O)cc12)c1ccccc1`, the inhibition came out at 9%.

As to `COc1cc(CO)ccc1-c1cc2c(Nc3ccccc3)ncnc2s1`, the inhibition was 8%.

For the molecule `COc1cc(CO)ccc1-c1cc2c(N[C@H](C)c3ccccc3)ncnc2s1`, the inhibition amounted to 1%.

In the case of `C[C@@H](Nc1ncnc2sc(-c3ccc(C(=O)NCCN(C)C)cc3)cc12)c1ccccc1`, the inhibition was found to be 7%.

The target of another series is Angiopoietin-1 receptor (Homo sapiens) (UniProt Q02763). Description: Inhibition of TEK (unknown origin) at 500 nM.
Take `COc1cc(CO)ccc1-c1cc2c(Nc3ccc(F)c(Cl)c3)ncnc2s1`: the inhibition came out at 11%.

As to `C[C@@H](Nc1ncnc2sc(-c3ccccc3C(N)=O)cc12)c1ccccc1`, the inhibition was 0%.

Turning to `COc1cc(CO)ccc1-c1cc2c(Nc3ccccc3)ncnc2s1`, the inhibition was 8%.

Turning to `COc1cc(CO)ccc1-c1cc2c(N[C@H](C)c3ccccc3)ncnc2s1`, the inhibition came out at 1%.

`C[C@@H](Nc1ncnc2sc(-c3ccc(C(=O)NCCN(C)C)cc3)cc12)c1ccccc1`: the inhibition came out at 3%.

The target of the next series is T1, Ephrin type-A receptor 1 (Homo sapiens) (UniProt P21709).
T1 sequence (whole entry): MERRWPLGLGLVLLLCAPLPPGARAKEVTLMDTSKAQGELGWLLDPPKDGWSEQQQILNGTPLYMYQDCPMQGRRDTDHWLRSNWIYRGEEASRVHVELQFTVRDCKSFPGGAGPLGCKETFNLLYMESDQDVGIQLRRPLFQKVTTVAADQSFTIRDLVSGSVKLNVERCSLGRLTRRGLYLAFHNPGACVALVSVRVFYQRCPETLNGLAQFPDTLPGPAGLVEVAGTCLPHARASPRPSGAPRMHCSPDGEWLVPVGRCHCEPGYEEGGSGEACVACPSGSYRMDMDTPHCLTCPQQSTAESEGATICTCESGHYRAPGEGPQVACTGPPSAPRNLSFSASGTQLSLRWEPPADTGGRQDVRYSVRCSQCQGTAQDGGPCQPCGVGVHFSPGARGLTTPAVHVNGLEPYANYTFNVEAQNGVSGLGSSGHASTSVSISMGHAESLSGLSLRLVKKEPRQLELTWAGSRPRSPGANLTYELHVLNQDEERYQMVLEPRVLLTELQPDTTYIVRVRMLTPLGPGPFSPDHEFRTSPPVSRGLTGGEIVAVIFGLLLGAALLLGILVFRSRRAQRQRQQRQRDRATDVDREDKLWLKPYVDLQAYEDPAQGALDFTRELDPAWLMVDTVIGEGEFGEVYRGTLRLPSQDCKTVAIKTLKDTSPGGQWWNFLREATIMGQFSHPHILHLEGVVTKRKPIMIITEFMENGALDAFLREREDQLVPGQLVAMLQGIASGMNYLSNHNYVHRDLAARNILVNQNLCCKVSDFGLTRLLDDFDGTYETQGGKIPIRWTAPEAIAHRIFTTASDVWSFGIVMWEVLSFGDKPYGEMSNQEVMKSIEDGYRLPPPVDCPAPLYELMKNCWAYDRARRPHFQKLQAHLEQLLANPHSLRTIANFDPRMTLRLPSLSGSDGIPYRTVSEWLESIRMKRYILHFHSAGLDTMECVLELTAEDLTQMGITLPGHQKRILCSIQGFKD
Description: Inhibition of EPHA1 (unknown origin) at 500 nM.
In the case of `COc1cc(CO)ccc1-c1cc2c(Nc3ccc(F)c(Cl)c3)ncnc2s1`, the inhibition is 12%.

In the case of `C[C@@H](Nc1ncnc2sc(-c3ccccc3C(N)=O)cc12)c1ccccc1`, the inhibition was 11%.

Take `COc1cc(CO)ccc1-c1cc2c(Nc3ccccc3)ncnc2s1`: the inhibition was found to be 13%.

Turning to `COc1cc(CO)ccc1-c1cc2c(N[C@H](C)c3ccccc3)ncnc2s1`, the inhibition was determined as 1%.

Turning to `C[C@@H](Nc1ncnc2sc(-c3ccc(C(=O)NCCN(C)C)cc3)cc12)c1ccccc1`, the inhibition worked out at 11%.

Another series concerns the target Tyrosine-protein kinase HCK (Homo sapiens) (UniProt P08631). Description: Inhibition of HCK (unknown origin) at 500 nM.
Turning to `COc1cc(CO)ccc1-c1cc2c(Nc3ccc(F)c(Cl)c3)ncnc2s1`, the inhibition was 15%.

Turning to `C[C@@H](Nc1ncnc2sc(-c3ccccc3C(N)=O)cc12)c1ccccc1`, the inhibition came to 2%.

Regarding `COc1cc(CO)ccc1-c1cc2c(Nc3ccccc3)ncnc2s1`, the inhibition is 28%.

As to `COc1cc(CO)ccc1-c1cc2c(N[C@H](C)c3ccccc3)ncnc2s1`, the inhibition amounted to 7%.

Consider `C[C@@H](Nc1ncnc2sc(-c3ccc(C(=O)NCCN(C)C)cc3)cc12)c1ccccc1`, for which the inhibition stood at 3%.

The target of the next series is T2, Testis-specific serine/threonine-protein kinase 2 (Homo sapiens) (UniProt Q96PF2).
T2 sequence (whole entry): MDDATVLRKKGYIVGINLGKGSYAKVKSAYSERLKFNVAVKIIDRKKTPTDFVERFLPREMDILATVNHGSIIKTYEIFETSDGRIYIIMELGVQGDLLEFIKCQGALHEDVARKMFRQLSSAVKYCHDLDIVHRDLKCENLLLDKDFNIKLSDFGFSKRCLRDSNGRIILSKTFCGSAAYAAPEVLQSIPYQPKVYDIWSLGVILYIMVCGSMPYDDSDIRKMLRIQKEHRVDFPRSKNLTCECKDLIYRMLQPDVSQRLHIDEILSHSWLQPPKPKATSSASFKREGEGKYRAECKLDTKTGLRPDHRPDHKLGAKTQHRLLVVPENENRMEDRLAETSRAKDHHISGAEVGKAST
Description: Inhibition of STK22B (unknown origin) at 500 nM.
With `COc1cc(CO)ccc1-c1cc2c(Nc3ccc(F)c(Cl)c3)ncnc2s1`, the inhibition turned out to be 1%.

As for `C[C@@H](Nc1ncnc2sc(-c3ccccc3C(N)=O)cc12)c1ccccc1`, the inhibition was determined as 5%.

Turning to `COc1cc(CO)ccc1-c1cc2c(Nc3ccccc3)ncnc2s1`, the inhibition amounted to 9%.

`COc1cc(CO)ccc1-c1cc2c(N[C@H](C)c3ccccc3)ncnc2s1`: the inhibition is 8%.

Take `C[C@@H](Nc1ncnc2sc(-c3ccc(C(=O)NCCN(C)C)cc3)cc12)c1ccccc1`: the inhibition is 11%.

In a further series the target is Glycogen synthase kinase-3 beta (Homo sapiens) (UniProt P49841). Put plainly: Inhibition of GSK3B (unknown origin) at 500 nM.
Sequence of Glycogen synthase kinase-3 beta (Homo sapiens) (P49841 whole entry, looked up): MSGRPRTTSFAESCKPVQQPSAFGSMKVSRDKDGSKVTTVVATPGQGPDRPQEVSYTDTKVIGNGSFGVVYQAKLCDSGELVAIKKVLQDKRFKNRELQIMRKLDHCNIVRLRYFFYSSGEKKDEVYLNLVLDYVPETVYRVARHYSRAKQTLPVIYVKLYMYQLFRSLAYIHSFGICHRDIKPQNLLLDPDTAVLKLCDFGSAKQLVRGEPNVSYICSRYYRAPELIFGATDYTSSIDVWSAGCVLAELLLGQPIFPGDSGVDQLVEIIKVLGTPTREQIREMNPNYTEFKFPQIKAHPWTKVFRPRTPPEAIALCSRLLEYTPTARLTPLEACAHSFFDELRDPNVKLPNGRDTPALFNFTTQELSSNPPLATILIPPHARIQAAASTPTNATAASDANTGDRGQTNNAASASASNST
As to `COc1cc(CO)ccc1-c1cc2c(Nc3ccc(F)c(Cl)c3)ncnc2s1`, the inhibition came to 4%.

Take `C[C@@H](Nc1ncnc2sc(-c3ccccc3C(N)=O)cc12)c1ccccc1`: the inhibition was determined as 6%.

As for `COc1cc(CO)ccc1-c1cc2c(Nc3ccccc3)ncnc2s1`, the inhibition came out at 5%.

Turning to `COc1cc(CO)ccc1-c1cc2c(N[C@H](C)c3ccccc3)ncnc2s1`, the inhibition was found to be 7%.

Take `C[C@@H](Nc1ncnc2sc(-c3ccc(C(=O)NCCN(C)C)cc3)cc12)c1ccccc1`: the inhibition worked out at 5%.

The next series addresses Receptor tyrosine-protein kinase erbB-2 (Homo sapiens) (UniProt P04626). Put plainly: Inhibition of ERBB2 (unknown origin) at 500 nM.
For the molecule `COc1cc(CO)ccc1-c1cc2c(Nc3ccc(F)c(Cl)c3)ncnc2s1`, the inhibition amounted to 48%.

Consider `C[C@@H](Nc1ncnc2sc(-c3ccccc3C(N)=O)cc12)c1ccccc1`, for which the inhibition is -3%.

With `COc1cc(CO)ccc1-c1cc2c(Nc3ccccc3)ncnc2s1`, the inhibition came out at 32%.

As to `COc1cc(CO)ccc1-c1cc2c(N[C@H](C)c3ccccc3)ncnc2s1`, the inhibition was determined as 57%.

`C[C@@H](Nc1ncnc2sc(-c3ccc(C(=O)NCCN(C)C)cc3)cc12)c1ccccc1`: the inhibition is 40%.

By inhibition is commonly meant the drop in the measured response relative to a control, in per cent. One may read the half-life as the time in which the quantity being followed falls by half. A higher half-life goes with slow decline. The term kinetic solubility denotes solubility judged after dilution from a stock solution rather than from solid.
